According to US20220030850A1, “CRYOPRESERVATIVE COMPOSITIONS AND METHODS” (REGENTS OF THE UNIVERSITY OF MINNESOTA, priority 2015, published 2022):

What was measured:
H9-MSCs [1] = experiment: Gene expression by qRT-PCR immediately post-thaw; assay type: cell-based, human; conditions: GAPDH internal control, FIG. 23
Method: Certain genes within select gene categories were analyzed using qRT-PCR. H9-MSCs subjected to different freezing approaches were assayed immediately post-thaw for the expression of genes related to trophic factor secretion such as HGF, VEGF, FGF2, CXCL12 (SDF-1α), mesodermal lineage markers TWIST1, TWIST2 (DERMO1), MSX2, the anti-apoptotic marker BCL2, surface markers for cell adhesion such as CD106 and CD54, the osmotic regulator marker GAL-1, and stress-response markers such as EGR1 and NFE2L2 (NRF2).
Pellets of thawed samples described above were resuspended in QIAZOL lysis agent (Qiagen, Hilden, Germany) for further RNA isolation and processing. […] The purified RNA was quantified using a NANODROP 2000 (Therm Fisher Scientific, Waltham, Mass.) device to determine concentration.
For qRT-PCR studies, 800 ng of RNA was used for reverse transcription to make cDNA using SuperScript III First-Strand Synthesis System (Thermo Fisher Scientific, Waltham, Mass.). cDNA was diluted to a concentration of 4 ng/μl and real-time qPCR was performed with 10 ng cDNA per 10 μl reaction with QuantiTect SYBR Green PCR Kit (Qiagen, Hilden, Germany) on CFX384 Real-Time PCR detection system (Bio-Rad Laboratories, Inc., Hercules, Calif.). […] were analyzed using the comparative CT method (Schmittgen et al., 2008. Nat Protoc 3:1101-1108) with GAPDH as an internal control gene.

[2] = 10% DMSO solution; cited from earlier work
[3] = test system: MSCs (CD73, CD90, CD105, CD45); experiment: Surface marker characterization by flow cytometry; assay type: cell-based, human; conditions: frozen MSCs
Description: Cells were suspended to a concentration of 1×10^6 cells/ml in media and stained with a panel of the following antibodies: mouse IgG1 anti-human CD73 (APC-conjugated, BD Biosciences, San Jose, Calif., clone AD2), mouse IgG1 anti-human CD90 (FITC-conjugate, clone 5E10, Molecular Probes, Eugene, Oreg.), mouse IgG1 anti-human CD105 (PE-conjugated, R&D Systems, Inc., Minneapolis, Minn. clone 166707) and mouse IgG1 anti-human CD45 (BV421-conjugated, clone HI30, BD Biosciences, San Jose, Calif.). Cells were incubated with antibodies for 30 minutes at 4° C. Flow cytometry was performed on a flow cytometer (LSR II, BD Biosciences, San Jose, Calif.) at low flow rate with the fine adjust knob five turns from max. At least 15,000 events were recorded for each sample. Cell populations were gated for forward and side scatter compared to unstained MSCs and CD45 expressing Jurkat cells as, respectively, negative and positive controls to establish boundaries for fluorescent signals.

H9-MSCs [4] = experiment: MSC vial freezing, post-thaw recovery and two-hour attachment (Example 5); assay type: cell-based, human; conditions: DMSO, room temperature pre-freeze incubation; 1° C./min; FIG. 21C
Method: Optimized solutions were prepared at double (2×) the final freezing concentration and added stepwise to cells in NORMOSOL-R (Hospira, Inc., Lake Forest, Ill.) at a 1:1 final volume ratio in a freezing vial (NALGENE, Nalge Nunc, Penfield, N.Y.). Control cells in media were similarly combined stepwise with DMSO at a 1:1 final volume ratio. Each of these vials was incubated at room temperature for 0 hours, one hour, or two hours. Experimental solutions were frozen using a 3° C./min cooling rate protocol described below, while DMSO solutions were frozen using a 1° C./min cooling rate protocol on a controlled rate freezer (Kryo 10 Series III, Planer PLC, Middlesex, United Kingdom). […]
Samples were submerged in a 37° C. bath to just under cap level, and agitated until only a small ice crystal was present. The cells were combined with acridine orange/propidium iodide (AO/PI) and counted using a hemocytometer. […]
Cell attachment of samples post-thaw was measured using a fluorescent plate reader. […] After two hours or 24 hours, these paired plates were washed with PBS, 1 μM calcein-acetoxymethyl (AM) dye was added, and then analyzed for fluorescence on a plate reader. Raw fluorescence values were used to calculate the number of live cells present in each well by correlating to a control curve of cells seeded at known densities. […]

Jurkat cells = experiment: Raman microscopy cell penetration study of cryoprotectants; assay type: cell-based; conditions: Raman microscopy, at room temperature and at freezing temperatures
Method: Raman microscopy data provides an indication of the location of action of each cryopreservative. The images in FIG. 12 show Jurkat cells frozen in either glycerol (penetrating) or trehalose (non-penetrating).
These experiments were performed for most of the components described in the sections above both at room temperature and at freezing temperatures to assess whether penetration was temperature dependent.
Confocal Raman Microspectroscopy (CRM) measurements are conducted using Witec Confocal Raman Microscope System Alpha 300R (WITec, Wissenschaftliche Instrumente und Technologie GmbH, Ulm, Germany) with UHTS300 spectrometer and DV401 CCD detector. A wavelength of 532 nm Nd:YAG laser and 10 mW of power is used as excitation source. The laser is transferred to the microscopy in a singer fiber. A 100× air objective (NA 0.90; Nikon Instruments, Melville, N.Y.) is used for focusing the 532 nm excitation laser to the sample. Data collection and analysis are performed by Windows-based WitecControl_1.38 software.

| SMILES | CXCL12 expression (H9-MSCs [1]) | TWIST2 expression (H9-MSCs [1]) | osmolarity [2] [mOsm] | expression of negative surface marker CD45 [3] [%] | expression of positive surface markers CD73, CD90, CD105 [3] [%] | attachment of cells, effect of incubation prior to freezing (H9-MSCs [4]) | cell recovery, effect of incubation prior to freezing (H9-MSCs [4]) | Penetration (Jurkat cells) |
| --- | --- | --- | --- | --- | --- | --- | --- | --- |
| C[S+](C)[O-] [DMSO, dimethyl sulfoxide] | notable change | elevated | ~1400 | < 1 | > 99 | significantly reduced | did not alter |  |
| OC[C@H]1O[C@@](CO)(O[C@H]2O[C@H](CO)[C@@H](O)[C@H](O)[C@H]2O)[C@@H](O)[C@@H]1O [Sucrose] |  |  |  |  |  |  |  | Yes |
